Reference: ChEMBL document CHEMBL4311960, “Two optimized antimicrobial peptides with therapeutic potential for clinical antibiotic-resistant Staphylococcus aureus” (Eur J Med Chem, 2019)
The source made the active and inactive calls. The rule behind the calls is not given here.

Key:
[1] = tested on: Staphylococcus aureus; assay: Disruption of membrane integrity in methicillin-resistant Staphylococcus aureus ATCC 18466 assessed as extravasation of cytoplasmic content at MIC incubated for 24 hrs by scanning electron microscopy; assay type: functional, organism-based
[2] = tested on: Staphylococcus aureus; assay: Inhibition of biofilm formation in Staphylococcus aureus ATCC 29213 assessed as downregulation of […] gene at MIC incubated for 1 hr by qRT-PCR; assay type: functional, organism-based
[3] = tested on: Staphylococcus aureus; assay: Disruption of membrane integrity in methicillin-resistant Staphylococcus aureus ATCC 18466 assessed as invagination of cell membrane at MIC incubated for 24 hrs by scanning electron microscopy; assay type: functional, organism-based
[4] = Hemolytic activity in mouse Erythrocyte assessed as HC50 incubated for 1 hr; assay type: ADME, cell-based; conditions: mouse erythrocytes
[5] = Stability in mouse plasma at 20 uM incubated for 24 hrs by HPLC-MS analysis; assay type: ADME, cell-free
[6] = tested on: Staphylococcus aureus; assay: Disruption of membrane integrity in Staphylococcus aureus ATCC 29213 assessed as decrease in cell volume at MIC incubated for 24 hrs by scanning electron microscopy; assay type: functional, organism-based
[7] = Hemolytic activity in mouse Erythrocyte at 640 ug/ml incubated for 1 hr relative to control; assay type: ADME, cell-based; conditions: mouse erythrocytes, read-out: %max
[8] = tested on: Staphylococcus aureus; assay: Disruption of membrane integrity in methicillin-resistant Staphylococcus aureus ATCC 18466 assessed as cell membrane damage at MIC incubated for 24 hrs by scanning electron microscopy; assay type: functional, organism-based
[9] = tested on: Candida albicans; assay: Antifungal activity against Candida albicans ATCC 5314 assessed as reduction in fungal growth incubated for 24 hrs by serial dilution method; assay type: functional; conditions: ATCC 5314, 24 h, read-out: MIC
[10] = tested on: Staphylococcus aureus; assay: Disruption of membrane integrity in Staphylococcus aureus ATCC 25923 assessed as decrease in cell volume at MIC incubated for 24 hrs by scanning electron microscopy; assay type: functional, organism-based
[11] = tested on: Staphylococcus aureus; assay: Inhibition of biofilm formation in methicillin-resistant Staphylococcus aureus ATCC 18466 at MIC incubated for 24 hrs by scanning electron microscopy; assay type: functional, organism-based
[12] = Stability in mouse plasma at 20 uM incubated for 12 hrs by HPLC-MS analysis; assay type: ADME, cell-free
[13] = tested on: Staphylococcus aureus; assay: Antibacterial activity against Staphylococcus aureus ATCC 29213 assessed as reduction in bacterial growth at MIC measured after 15 passages; assay type: functional
[14] = tested on: Staphylococcus aureus; assay: Inhibition of biofilm formation in Staphylococcus aureus ATCC 25923 assessed as downregulation of […] gene at MIC incubated for 1 hr by qRT-PCR; assay type: functional, organism-based
[15] = tested on: Staphylococcus aureus; assay: Inhibition of biofilm formation in Staphylococcus aureus ATCC 25923 assessed as downregulation of hld gene at MIC incubated for 1 hr by qRT-PCR; assay type: functional, organism-based
[16] = tested on: Staphylococcus aureus; assay: Disruption of membrane integrity in Staphylococcus aureus ATCC 29213 assessed as perforation of cell membrane at MIC incubated for 24 hrs by scanning electron microscopy; assay type: functional, organism-based
[17] = tested on: Staphylococcus aureus; assay: Inhibition of biofilm formation in methicillin-resistant Staphylococcus aureus ATCC 18466 assessed as downregulation of […] gene at MIC incubated for 1 hr by qRT-PCR; assay type: functional, organism-based
[18] = tested on: Staphylococcus aureus; assay: Disruption of membrane integrity in methicillin-resistant Staphylococcus aureus ATCC 18466 assessed as perforation of cell membrane at MIC incubated for 24 hrs by scanning electron microscopy; assay type: functional, organism-based
[19] = tested on: Streptococcus sanguinis; assay: Antibacterial activity against Streptococcus sanguinis ATCC 10556 assessed as reduction in bacterial growth incubated for 24 hrs by serial dilution method; assay type: functional; conditions: ATCC 10556, 24 h, read-out: MIC
[20] = tested on: Staphylococcus aureus; assay: Disruption of membrane integrity in Staphylococcus aureus ATCC 29213 assessed as invagination of cell membrane at MIC incubated for 24 hrs by scanning electron microscopy; assay type: functional, organism-based

Row | Substance | Activity [1] | inhibition [2] | Activity [3] | HC50 at 1 h [4] | Stability [5] | Activity [6] | hemolysis at 1 h, 640 ug/ml [7] | Activity [8] | MIC [9] | Activity [10] | inhibition [11] | Stability [12] | Activity [13] | inhibition [14] | inhibition [15] | Activity [16] | inhibition [17] | Activity [18] | MIC [19] | Activity [20]
1 | H-SYERKINRHFKTLKKNLKKK-NH2 | Active | Active | Active | > 640 µg/mL | Unstable | Active | 7.06% | Active | 64 mg/L | Active | Active | Stable | Active | Active | Active | Active | Active | Active | < 64 mg/L | Active
2 | H-YIRKIRRFFKKLKKILKK-NH2 | Active | Active | Active | > 640 µg/mL | Unstable | Active | 10.3% | Active | 32 mg/L | Active | Active | Stable | Active | Active | Active | Active | Active | Active | < 64 mg/L | Active
